Measured values taken from patent US12029730B2, “Pharmaceutical composition for preventing or treating cancer, containing N-1H-benzimidazol-2-yl-3-(1H-pyrrole-1-yl)benzamide as active ingredient” (KOREA INSTITUTE OF RADIOLOGICAL & MEDICAL SCIENCES, priority 2018, dated 2024).

How the values were obtained:
[1] = tested on: MCF7 cells; assay: Tumorsphere formation assay; format: cell-based, human; conditions: MCF7, cultured 15 days, compared to DMSO, FIG. 8
Experimental: A tumorsphere formation assay was performed in order to determine whether the selected MKI-1 can effectively reduce the formation of tumorsphere in cancer cells, Breast cancer cells MCF7 (2500-10000 cells) was suspended in serum-free DMEM/F12 (weIGENE) containing 1% penicillin, B-27 (1:50; invitrogen), 20 ng/mL epidermal cell growth factor (R&D Systems) and 20 ng/mL fibroblast growth factor (R&D Systems) and cultured on plates with low adhesion rate. After 24 hours, the cells were treated with MASTL kinase inhibitors (AT13148, MKI-1 and GKI-1), respectively, and cultured for 15 days, and then the diameter of the tumorsphere was measured and quantified, which was shown in FIG. 8.

[2] = tested on: BT549 cells; assay: WST-8 cell viability assay, breast cancer cell line BT549; format: cell-based, human; conditions: FIG. 6; for cell viability, BT549: 3.70, 11.11, 33.33 and 100 μM
Experimental: In addition, the cell line in this experiment was distributed from ATCC (American Type Culture Collection; Manassas, VA). Human-derived tumor cell lines, breast cancer cell lines MCF7 and T47D was cultured in DMEM medium containing 10% fetal bovine serum (FBS; HyClone, South Logan, UT) and 1% penicillin/streptomycin (Corning, NY, USA) at 37° C. and 5% CO2, and the BT549 breast cancer cell line was cultured in RPMI 1640 (Welgene, Daegu, Korea) as a medium used under the same conditions. Human-derived normal cell line MCF10A was cultured in DMEM/F12 (Invitrogen) medium containing 5% horse serum (Invitrogen), 1% penicillin/streptomycin, 20 ng/ml EGF (Peprotech, London, UK), […] (Sigma-Aldrich, MO, USA), 100 ng/ml cholera toxin (Cholera Toxin, Sigma-Aldrich) and 10 μg Insulin (Sigma-Aldrich) at 37° C. and 5% CO2.
In order to confirm whether the selected MKI-1 can kill only cancer cells, an experiment was performed by treating with MKI-1 and measuring whether the cell viability of breast cancer cell lines and normal cell lines was changed. WST-8 analysis (Cyto X™ cell viability assay kit, LPS solution, Daejeon, Korea) was performed according to the manufacturer's protocol. Cancer cells MCF7 and BT549 and normal cell line MCF10A cells were inoculated into a 96-well plate, cultured for 24 hours, and then treated with MASTL kinase inhibitors at various concentrations (3.70, 11.11, 33.33 and 100 μM). Thereafter, the absorbance was measured at 450 nm using a Versamax micro plate reader (Molecular Devices, CA, USA), and the results were shown in FIG. 6.

[3] = tested on: MCF7 cells; assay: 3D culture spheroid formation; format: cell-based, human; conditions: MCF7 3D culture, AT13148 2 μM, GKI-1 10 μM, MKI-1 10 μM, FIG. 9
Experimental: 3D culture was performed according to the protocol of the manufacturing company TheWell Bioscience. It was inoculated into 24-wells containing a DMEM mixture containing 10,000 MCF7 cells in an MCF7 cell:hydrogel solution in a ratio of 1:3 (v/v) and VitroGel™ 3D-RGD diluted with 0.1% PBS in a ratio of 1:3 (v/v) of a hydrogel:diH2O. Thereafter, incubation was performed at 37° C. for 15 minutes to stabilize the VitroGel 3D-RGD hydrogel. To cover the hydrogel, the same volume of DMEM as the hydrogel was added, and the next day, the hydrogel was treated with a DMSO base drug containing DMSO, AT13148 (2 μM), GKI-1 (10 μM) and MKI-1 (10 μM). The medium was exchanged every 2 days for 14 to 20 days.

[4] = molecular target: T1, MASTL kinase (Homo sapiens, UniProt Q96GX5); assay: ADP-Glo luminescence-kinase assay; format: biochemical; conditions: 10 μM ATP, FIG. 2
T1 construct: GST; purchased Thermo Fisher Scientific
T1 sequence (Q96GX5 1-879): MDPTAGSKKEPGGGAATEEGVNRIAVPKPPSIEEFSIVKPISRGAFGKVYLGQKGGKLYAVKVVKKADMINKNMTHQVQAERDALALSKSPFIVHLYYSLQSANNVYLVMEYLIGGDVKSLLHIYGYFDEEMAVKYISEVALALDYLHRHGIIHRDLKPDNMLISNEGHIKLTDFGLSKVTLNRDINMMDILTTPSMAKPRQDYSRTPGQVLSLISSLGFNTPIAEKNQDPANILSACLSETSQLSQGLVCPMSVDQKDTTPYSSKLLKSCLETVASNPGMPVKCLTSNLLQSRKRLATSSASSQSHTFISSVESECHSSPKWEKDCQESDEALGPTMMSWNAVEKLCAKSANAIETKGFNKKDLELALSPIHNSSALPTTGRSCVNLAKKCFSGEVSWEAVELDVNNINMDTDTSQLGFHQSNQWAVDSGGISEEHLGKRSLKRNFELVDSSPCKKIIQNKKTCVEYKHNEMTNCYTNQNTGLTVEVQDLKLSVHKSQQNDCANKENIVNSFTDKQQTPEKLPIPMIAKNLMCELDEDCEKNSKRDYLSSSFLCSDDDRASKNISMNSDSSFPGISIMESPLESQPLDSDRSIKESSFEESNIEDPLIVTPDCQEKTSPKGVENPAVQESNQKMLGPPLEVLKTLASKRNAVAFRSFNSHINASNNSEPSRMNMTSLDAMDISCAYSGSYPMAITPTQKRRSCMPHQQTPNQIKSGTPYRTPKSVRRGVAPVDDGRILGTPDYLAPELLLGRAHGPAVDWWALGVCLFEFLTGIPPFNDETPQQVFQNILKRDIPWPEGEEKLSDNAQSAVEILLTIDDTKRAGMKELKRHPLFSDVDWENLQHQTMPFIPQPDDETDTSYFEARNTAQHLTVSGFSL
Experimental: A protein kinase analysis was performed using the ADP-Glo™ kinase assay kit according to the standard protocol provided by Promega. […] A solution of a serial 2-fold dilution of the MASTL kinase inhibitor (GKI-1, MKI-1 or AT13148) was prepared and MASTL kinase […], ENSA 250 ng and 10 μM ATP was mixed in a kinase reaction buffer consisting of 100 mM Tris-HCl (pH 7.5), 30 mM MgCl2, 2 mM DTT, 1 mM EDTA and 10 μM ultra-pure ATP (Promega). Thereafter, the mixture was reacted at 30° C. for 30 minutes in an E-tube, and a kinase detection reagent was added thereto, followed by reacting for 30 minutes to detect the converted ATP. Then, the reacted product was transferred to a 384-well white plate, and […] was read using a SpectraMax i3× Multi-Mode Microplate Reader (Molecular Devices), and GKI-1, N-(4-chlorophenyl)-3-(1H-pyrazol-4-yl)aniline and AT13148 were used as positive controls. The effect of inhibiting kinase activity of GKI-1 and MKI-1 and its IC50 confirmed through the reading result were shown in FIG. 2. In addition, enzyme activity assay was performed under the same conditions except for the treatment of each concentration of MKI-1 (0, 6.25, 12.5, 25, 50 and 100 μM) through western blot, and it was shown in FIG. 3.

Clc1ccc(Nc2cccc(-c3cn[nH]c3)c2)cc1 [GKI-1, N-(4-chlorophenyl)-3-(1H-pyrazol-4-yl)aniline, reference compound]
tumorsphere diameter [1]: hardly decreased
cell viability, BT549 [2]: decreases cell viability in a dose-dependent manner
size of cancer cell spheroid [3]: hardly decreased
IC50 [4]: 12 µM

O=C(Nc1nc2ccccc2[nH]1)c1cccc(-n2cccc2)c1 [MKI-1, N-1H-benzimidazol-2-yl-3-(1H-pyrrol-1-yl) benzamide]
tumorsphere diameter [1]: significantly decreased
survival rate of cancer cells, BT549 ([2]; 33.33 μM or more): significantly reduced
cell viability, BT549 [2]: decreases cell viability in a dose-dependent manner
size of cancer cell spheroid [3]: significantly reduced
IC50 [4]: 11.6 µM
